Consider 4 compounds from patent US10010585B2, “Methods of treating vestibular schwannoma and reducing hearing or neurite loss caused by vestibular schwannoma” (Massachusetts Eye and Ear Infirmary, priority 2014, dated 2018).

One data set concerns NF2 VSs. The settings on record: NF2 VS patients; cited from earlier work.
Data set [1] relates to primary VS cells. Briefly: BrdU proliferation assay in primary VS cultures. The settings on record: for proliferation, of the NT cells / proliferation, of the non-treated cells: 48 hours. It is filed as cell-based, human. How it is done: Proliferation rate of 12 VS cultures was assessed and correlated with the tumor volume in the latest gadolinium enhanced T1-weighted MRI scan prior to surgical resection, and with tumor growth in vivo, measured as changes in the tumor's volume over time calculated from serial MRI scans. Tumor growth was standardized by dividing the growth rate by the initial tumor volume. Separate analyses were performed for solid tumors, which generally account for approximately 96% of VSs (Charabi et al., 1994), versus all studied tumors, which included 4 out of 13 total tumors with a visible cystic component, because cystic components could misrepresent true tumor volume (Charabi et al., 1994). To determine the level of cell proliferation in the cultures, Bromodeoxyuridine (BrdU) was added to the cells at a concentration of 10 μg/ml 20 hours before the cells were fixed. The cells were kept in the dark after the addition of BrdU Immunofluorescence protocol was followed as described under ‘Immunofluorescence,’ and cell and nuclear membranes were permeablized by incubation in 1% Triton-X for 10 minutes and by incubation in 2N Hydrochloric acid for 20 minutes, respectively, after fixation. Primary antibody against BrdU (AbD Serotec, NC, 1:200) and anti-rat IgG (Life Technologies, NY, 1:1000) were used. BrdU- and Hoechst-stained nuclei were counted in 3-5 fields and the ratio of BrdU positive to Hoechst positive nuclei was used to determine the proliferation rate in vitro. […]
(§1) Cultured human primary VS cells, primary SCs and HEI-193 cells were treated with NF-κB inhibitors BAY11-7082 (BAY11) or curcumin for 48 hours (Santa Cruz Biotechnology). BAY11 or curcumin, diluted in 100% DMSO, were mixed to the accurate concentrations in warmed media and applied to the cultures (with DMSO concentration in media being 1% maximum), alongside a no-treatment control receiving media alone with appropriate corresponding DMSO levels. Experiments were performed in media fortified with antibiotics and serum (same formulation as described in Example 1 for culturing cells).
(§2) After 48 hours of treatment, primary VS and Schwann cultures were fixed for BrdU staining, to visualize proliferation, or TUNEL staining, to visualize cell death. The same methodology as described in Example 1 was utilized. Cleaved caspase 3 staining, another apoptosis marker to reinforce findings using TUNEL, was conducted using an antibody against cleaved caspase 3 following the ‘immunofluorescence’ protocol outlined in Example 1.
(§3) The cultures were incubated with the drugs for 48 hours. To label proliferating cells, BrdU was added 20 hours before fixation. pH was measured in the media after drug addition to ensure no significant deviations.
(§4) After 48 hours of treatment with salicylates, primary VS and SC cultures were fixed for BrdU staining, to visualize proliferation, or TUNEL staining, to visualize cell death. The same methodology as described in Example 1 was utilized.
To understand cross-talk between HGF and VEGF-A pathway, cultured VS cells were incubated with Life Technologies silencer select siRNAs targeting VEGFA (s461) or MET (s8700). To understand whether HGF signaling contributed to VS proliferation, cultured VS cells were treated with MET inhibitor SU11274 (Sigma-Aldrich, MO, #S9820). Seventy-two hours after siRNA treatment or 12 hours after treatment with SU11274 (2 μM), cells were incubated with 10 μg/mL BrdU (Life Technologies, NY, # B23151) for 20 hours before fixation.

The subject of data set [2] is primary VS cells. Briefly: TUNEL cell death assay in primary VS cultures. The settings on record: 48 hours. The class given is cell-based, human. How it is done:
Rate of apoptosis in 6 VS cultures was assessed and correlated with tumor growth in vivo and tumor volume. […] Apoptosis was measured using terminal deoxynucleotidyl transferase dUTP nick end labeling (TUNEL, Roche Applied Sciences, NY) following manufacturer's instructions. Briefly, immunofluorescence protocol was followed as described under ‘Immunofluorescence,’ until fixations, then the cells were washed with PBS thrice and incubated in 1% Triton-X for 10 minutes on shaker. The cells were washed with PBS once and incubated in TUNEL mix for 1 hour at 37° C., then for 30 minutes at RT on shaker. The cells were then incubated in rhodamine phalloidin (Life Technologies, NY, 1:40) and Hoechst stain for 20 minutes, washed with PBS thrice and mounted onto slides for imaging. TUNEL and Hoechst stained nuclei were counted in >3 fields and the ratio of TUNEL positive to Hoechst positive nuclei was used to determine apoptosis rate in vitro. A positive control of 10 minutes-DNAse (Roche Applied Sciences, NY) treatment prior to TUNEL labeling was utilized.
(§5) For siRNA treatment, cultured primary VS cells or HEI-193 cells were placed in antibiotic and serum free media overnight. The next day, the cells were incubated with Life Technologies siRNAs targeting NF-κB genes RELA and NF-κB1, with control cells being treated with vehicle only (Lipofectamine RNAiMax), for 5 days. Some cultures were also incubated with a fluorescent random Oligo (Life Technologies) along with vehicle to assess transfection efficiency. siRNA experiments were performed in antibiotic and serum free media.
BAY11 or curcumin, diluted in 100% DMSO, were mixed to the accurate concentrations in warmed media and applied to the cultures (with DMSO concentration in media being 1% maximum), alongside a no-treatment control receiving media alone with appropriate corresponding DMSO levels.
After 48 hours of treatment, primary VS and Schwann cultures were fixed for BrdU staining, to visualize proliferation, or TUNEL staining, to visualize cell death.
After 48 hours of treatment with salicylates, primary VS and SC cultures were fixed for BrdU staining, to visualize proliferation, or TUNEL staining, to visualize cell death.

Data set [3] concerns primary SCs. Briefly: BrdU proliferation assay in primary Schwann cell cultures. The class given is cell-based, human. The settings on record: 48 hours. How it is done: (§6) Proliferation rate of 12 VS cultures was assessed and correlated with the tumor volume in the latest gadolinium enhanced T1-weighted MRI scan prior to surgical resection, and with tumor growth in vivo, measured as changes in the tumor's volume over time calculated from serial MRI scans. Tumor growth was standardized by dividing the growth rate by the initial tumor volume. Separate analyses were performed for solid tumors, which generally account for approximately 96% of VSs (Charabi et al., 1994), versus all studied tumors, which included 4 out of 13 total tumors with a visible cystic component, because cystic components could misrepresent true tumor volume (Charabi et al., 1994). To determine the level of cell proliferation in the cultures, Bromodeoxyuridine (BrdU) was added to the cells at a concentration of 10 μg/ml 20 hours before the cells were fixed. The cells were kept in the dark after the addition of BrdU Immunofluorescence protocol was followed as described under ‘Immunofluorescence,’ and cell and nuclear membranes were permeablized by incubation in 1% Triton-X for 10 minutes and by incubation in 2N Hydrochloric acid for 20 minutes, respectively, after fixation. Primary antibody against BrdU (AbD Serotec, NC, 1:200) and anti-rat IgG (Life Technologies, NY, 1:1000) were used. BrdU- and Hoechst-stained nuclei were counted in 3-5 fields and the ratio of BrdU positive to Hoechst positive nuclei was used to determine the proliferation rate in vitro.
as §1, §2, §3, §4

The next data set relates to COX-2. The settings on record: 48 hours, VS culture media. How it is done:
Prostaglandin (PTG) E2 was assayed in the media of VS cultures using the Prostaglandin E2 Parameter Assay Kit (R&D Systems, KGE004B). The media was collected after 48 hours of treatment from non-treated and treated cultured cells. Manufacturer's instructions were closely followed.
as §3

Data set [4] concerns primary SCs. As to the kind of experiment: TUNEL cell death assay in primary Schwann cell cultures. The class given is cell-based, human. The settings on record: 48 hours. How it is done:
(§7) Rate of apoptosis in 6 VS cultures was assessed and correlated with tumor growth in vivo and tumor volume. Two out of the six VS had cystic components. Apoptosis was measured using terminal deoxynucleotidyl transferase dUTP nick end labeling (TUNEL, Roche Applied Sciences, NY) following manufacturer's instructions. Briefly, immunofluorescence protocol was followed as described under ‘Immunofluorescence,’ until fixations, then the cells were washed with PBS thrice and incubated in 1% Triton-X for 10 minutes on shaker. The cells were washed with PBS once and incubated in TUNEL mix for 1 hour at 37° C., then for 30 minutes at RT on shaker. The cells were then incubated in rhodamine phalloidin (Life Technologies, NY, 1:40) and Hoechst stain for 20 minutes, washed with PBS thrice and mounted onto slides for imaging. TUNEL and Hoechst stained nuclei were counted in >3 fields and the ratio of TUNEL positive to Hoechst positive nuclei was used to determine apoptosis rate in vitro. A positive control of 10 minutes-DNAse (Roche Applied Sciences, NY) treatment prior to TUNEL labeling was utilized.
as §1, §2

The subject of data set [5] is HEI-193 NF2 VS cell line. Briefly: BrdU proliferation assay in HEI-193 cells. It is filed as cell-based, human. The settings on record: for normalized proliferation rate: 48 hours. How it is done:
as §6
(§8) The same methodology as described in Example 1 was utilized for primary VS and SC cultures. Cultures were treated with NF-κB inhibitors approximately after 2 weeks of culturing. HEI-193 cell line was a gift from Dr. Giovannini at the House Ear Institute (Hung et al., 2002a).
as §5, §1, §2

The subject of data set [6] is HEI-193 NF2 VS cell line. As to the kind of experiment: TUNEL cell death assay in HEI-193 cells. The settings on record: 48 hours. The class given is cell-based, human. How it is done: as §7, §8, §5, §1, §2

Where “and” joins values, the source holds several entries; their conditions need not be identical. Identical values can stand only once. Like-named read-outs stand apart in the source and are kept apart here.

In the case of bevacizumab, in the data set on NF2 VSs, the “patients with decrease in tumor size / volume” value is recorded as 55% and the “patients with hearing improvement” value is reported as 57%.

Regarding `O=C([O-])c1ccccc1O.[Na+]` [NaSal, sodium salicylate], the “proliferation, of the NT cells” value with primary VS cells [1] (1 mM) is 18% and 18.9±5.0%; with primary VS cells [1] (5 mM) it was 25.4±11.1%; in the data set on primary VS cells [1] (10 mM), 20.6±11.2%; in the data set on primary SCs [3] (5 mM), 104.4±13.2%; in the data set with primary SCs [3] (10 mM), 64.9±18.9%. For the same compound, the cell death rate in the data set with primary VS cells [2] (5 mM) is on record as 3.3±2.3%. The “secreted PTG levels, of NT cells” value with COX-2 (1 mM) is 3.8%; in the data set on COX-2 (5 mM), 32.2%.

Turning to `CS(=O)(=O)CCNCc1ccc(-c2ccc3ncnc(Nc4ccc(OCc5cccc(F)c5)c(Cl)c4)c3c2)o1` [Lapatinib, lapatinib], in the data set with NF2 VSs, the “patients with decrease in tumor size / volume” value is on record as “approximately 24%” and the “patients with hearing improvement” value is about 31%.

Turning to `Cc1ccc(S(=O)(=O)/C=C/C#N)cc1` [BAY11, BAY11-7082], the “proliferation, of the non-treated cells” value came to 54.7±22.8% in the data set with primary VS cells [1] (1 μM); 14% in the data set on primary VS cells [1] (5 μM); 14.3±9.7% in the data set with primary VS cells [1] (5 μM, listed as BAY 11). The “effective therapeutic window to target VS cells” value with primary VS cells [1] (from primary VS and SC culture results combined) is given as “around 5 μM”. The cell death rate in the data set on primary VS cells [2] (1 μM) is 36±13%; in the data set on primary VS cells [2] (5 μM), 47±12%; with HEI-193 NF2 VS cell line [6] (1 μM), 1.3±0.5%; in the data set with HEI-193 NF2 VS cell line [6] (5 μM), 1.9±1.2%; in the data set with HEI-193 NF2 VS cell line [6] (10 μM), 1.1±1.1%; in the data set on HEI-193 NF2 VS cell line [6] (100 μM) it was 58.8±21.5%. The compound also came in with a cell death rate in the data set on HEI-193 NF2 VS cell line [6] of 55.3±16.9%. Besides, the normalized proliferation rate in the data set on primary SCs [3] (1 μM) is 165.2±125.1%; with primary SCs [3] (5 μM), 133.2±101.1%; with HEI-193 NF2 VS cell line [5] (10 μM) it was 65.6±24.6%; in the data set with HEI-193 NF2 VS cell line [5] (100 μM), 9.1±4.9%; in the data set on HEI-193 NF2 VS cell line [5], 4.3±3.3%. Besides, the “normalized proliferation rate, of the NT cells” value with primary SCs [3] (1 mM) turned out to be 130.2±65.6%. Besides, the “apoptosis / cell death rate” value came out at 1.0±0.7% in the data set on primary SCs [4] (1 μM) and 0.7±0.7% in the data set with primary SCs [4] (5 μM). Further, the “higher concentration needed to reduce proliferation and survival than in primary VS cells” value in the data set with HEI-193 NF2 VS cell line [5] (NF2 VS cell line versus primary VS cells) is about 10 fold.
